Patent US20040163143A1, “Method for efficiently producing transgenic plant using auxin precursor” (NIPPON PAPER INDUSTRIES CO., LTD., priority 2002, published 2004)

How the values were obtained:
[1] = system: stem sections of a high rooting clone of E. globulus; experiment: gene introduction test on high rooting clone of E. globulus, vector pIPT10; type: cell-based, Eucalyptus globulus; conditions: same manner as Example 3 (NAM 1 μM)
Experimental: Definite buds of a high rooting clone of E. globulus from Chile were aseptically grown using a medium prepared by adding 0.5 mg/l zeatin to the Y basal medium of Example 2, and the elongated stems were cut into sections of 5 mm to be used as samples for gene introduction and infected with the plasmid pIAH6-introduced Agrobacterium in the same manner as in Example 1. The sections after infection culturing were put on an EG basal agar medium (agar 8.5 g/l) supplemented with 500 mg/l ticarcillin and 1 μM of an auxin precursor analogue NAM, and the culturing was continued at 25° C. under light conditions of 30 to 40 μmol/m^2/s in light intensity while sub-culturing at an interval of 2 weeks using the same medium. Four months after the Agrobacterium infection, the redifferentiated adventitious buds were subjected to a GUS staining test in accordance with the above method of Jefferson et al., and the degree of formation of desired gene-introduced adventitious buds was judged. Using plasmid pIPT10 as the vector, a gene introduction test was carried out into a high rooting clone of E. globulus in the same manner as in Example 3.

[2] = system: E. globulus hypocotyl sections; experiment: E. globulus gene introduction test, vector pIAH6 (ipt + iaaH + GUS), adventitious bud redifferentiation and GUS staining; type: cell-based, Eucalyptus globulus; conditions: for B Adventitious bud differentiated (number of sections): 3 months after infection; for B/A Redifferentiation ratio / C/A Gene introduction ratio / C/B Selection efficiency: section basis
Experimental: Using a plasmid pIAH6 as a vector having a GUS gene as a model of a desired gene and an ipt gene and an iaaH gene as selectable marker genes, a transformant was produced by carrying out gene introduction into Eucalyptus globulus (hereinafter referred to as “E. globulus”) by the method of the present invention. Seeds of E. globulus from Chile were sterilized by soaking in 70% ethanol for about 1 minute and then soaking with stirring in a 2% aqueous sodium hypochlorite solution for about 4 hours, washed thoroughly with sterile water, inoculated on an MS agar medium to which 0.5 mg/l zeatin had been added and stored in a refrigerator at 4° C. for 2 days to accelerate germination, and then the germination was carried out by culturing at 25° C. under light conditions of about 10 μmol/m^2/s in light intensity. One to two weeks after the inoculation of the seeds onto the germination medium, hypocotyls were collected by cutting out apical buds, cotyledons and roots of the germinated seedlings, and the hypocotyls were cut into sections of about 5 mm to be used as samples for gene introduction and subjected to the following test. A. tumefaciens EHA105 introduced with the plasmid pIAH6 in the above item I was cultured overnight in the YEB liquid medium and then diluted to OD630 =0.5 with EG basal medium, and the sections of hypocotyl prepared in the above were soaked in the cell suspension. Next, each of the sections after removing excess cell suspension was co-cultured with Agrobacterium on an agar medium (agar 8.5 g/l) prepared by adding 1.0 mg/l zeatin, 0.05 mg/l NAA and 40 mg/l acetosyringone to the EG basal medium, at 25° C. for 3 days in the dark to thereby infect each section with the pIAH6-introduced Agrobacterium. In this case, a modified MS medium having an ammonia nitrogen/nitrate nitrogen concentration ratio of 1:3 (5 mM NH4, 15 mM NO3) was supplemented with 20 g/l sucrose and used as the EG basal medium. The sections after infection culturing were put on an EG basal agar medium (agar 8.5 g/l) supplemented with 500 mg/l ticarcillin and 1 μM or 10 μM of an auxin precursor analogue NAM, and the culturing was continued at 25° C. under light conditions of 30 to 40 μmol/m^2/s in light intensity while sub-culturing at an interval of 2 weeks using the same medium. Among these sections, the quicker ones redifferentiated adventitious buds after about 2 months of the Agrobacterium infection. Three months after the Agrobacterium infection, in order to examine expression of the GUS gene used as a model of the desired gene, the redifferentiated adventitious buds were subjected to a GUS staining test in accordance with the method of Jefferson et al. (Plant Mol. Biol. Rep., 5: 387-405 (1987)), and the degree of formation of desired gene-introduced adventitious buds was judged by examining the number of stained adventitious buds (the number of adventitious buds expressing the desired gene). An E. globulus gene introduction test was carried out in the same manner as in Example 1, except that the hypocotyl sections after the Agrobacterium infection were cultured using the EG basal agar medium (agar 8.5 g/l) supplemented with 500 mg/l ticarcillin and 0 μM, 1 μM or 10 μM NAA as auxin.

[3] = NAM 1 μM in medium, 60 sections tested
[4] = NAM 10 μM in medium, 48 sections tested

NC(=O)Cc1cccc2ccccc12 [NAM, naphthaleneacetic acid amide]
redifferentiated individuals into which the desired gene was introduced [1]: not obtained | redifferentiation of adventitious buds [1]: not redifferentiated | C GUS + adventitious bud differentiated (number of sections) [2, 3]: 8 number of sections | B Adventitious bud differentiated (number of sections) [2, 3]: 21 number of sections | B/A Redifferentiation ratio ([2]; NAM 1 μM in medium): 35.0% | C/A Gene introduction ratio ([2]; NAM 1 μM in medium): 13.3% | C/B Selection efficiency ([2]; NAM 1 μM in medium): 38.1% | C GUS + adventitious bud differentiated (number of sections) [2, 4]: 1 number of sections | B Adventitious bud differentiated (number of sections) [2, 4]: 2 number of sections | B/A Redifferentiation ratio ([2]; NAM 10 μM in medium): 4.2% | C/A Gene introduction ratio ([2]; NAM 10 μM in medium): 2.1% | C/B Selection efficiency ([2]; NAM 10 μM in medium): 50.0%
